System: oxidative stress
Test: PET imaging of LPS-induced neuroinflammation with [11C]ERGO radioligand, with Tempol blocking
Assay type: in vivo, mouse
Conditions: LPS-treated WT mice, Tempol 0.2 mg/mL prior to [11C]ERGO
Method: The mice were injected with ˜20 MBq/0.1 ml 11C-ERGO via the tail vein and returned to their cages for 10 min. Then they were anesthetized with 2% isofluorane and imaged in an Inveon microPET (Siemens Pre-clinical, Knoxville, Tenn., USA) for 30 min in static mode followed by a CT scan using a NanoSPECT/CT (Mediso, Wash. D.C.) at an x-ray beam intensity of […] and x-ray voltage of 45 kVp. PET images were reconstructed using the iterative MAP reconstruction algorithm with 18 iterations and a beta smoothing value of 0.001 into 128×128×95 slices with a voxel size of 0.388 mm×0.388 mm×0.796 mm. The CT images were reconstructed into 170×170×126 slices at a voxel size of 0.4×0.4×0.4 mm^3. The PET and CT images were co-registered using the imaging tool AMIDE.
The mouse model of LPS-induced neuroinflammation was developed based on past reports. The LPS derived from Escherichia coli […] (Sigma Aldrich, St Louis, Mo.) was formulated in sterilized dd. water and given a high dose of LPS formulation (5 mg/Kg) through intraperitoneal injection 24 h before PET imaging. This high dose would result in approximately 12-13% body weight loss over the course of 24 h. After PET imaging, animals were sacrificed, and the brains were collected for histology analysis.
The reported LPS mouse model of neuroinflammation in the past was reproduced for the validation of the specificity of the probe. […]

CC1(C)CC(O)CC(C)(C)N1[O] [Tempol, 4-hydroxy-2,2,6,6-tetramethyl piperidinoxyl, reference compound]
[11C]ERGO PET signal in brain of LPS-treated mice after co-injection with excess Tempol (blocking): significant reduction of the PET signal
